From BindingDB's records for doi:10.1021/jm00018a006 (University of Arizona, 1995)
pIC50: −log10 of the molar value. *1 amine or outer side, *2 acyl side, *3 side chain or, on linkers, in order; H or OH if unused. Where a SMILES comes first, the peptide text is derived from it. Side-chain parts run from the residue outwards. [ ]: non-standard residue; d: D form. X4 = CC(C)C[C@@H](CN([C@@H](CCCN=C(N)N)C(=O)[*:2])[*:1])N[*:3]

Target: Delta-type opioid receptor (Cavia porcellus)
Test: Binding affinity against delta opioid receptor of Guinea pig brain homogenate using [3H]c[D-Pen2,p-Cl-Phe4,D-Pen5]enkephalin

SMILES	pIC50
CC[C@H](C)[C@H](NC(=O)[C@H](CCCN=C(N)N)NC(=O)[C@H](CCCN=C(N)N)NC(=O)[C@H](CC(C)C)NC(=O)[C@H](Cc1ccccc1)NC(=O)CNC(=O)CNC[C@@H](N)Cc1ccc(O)cc1)C(=O)N[C@@H](CCCN=C(N)N)C(=O)N1CCC[C@H]1C(=O)N[C@@H](CCCCN)C(N)=O	6.70
CC[C@H](C)[C@H](NC(=O)[C@H](CCCN=C(N)N)NC[C@H](CCCCN)NC(=O)[C@H](CC(C)C)NC(=O)[C@H](Cc1ccccc1)NC(=O)CNC(=O)CNC(=O)[C@@H](N)Cc1ccc(O)cc1)C(=O)N[C@@H](CCCN=C(N)N)C(=O)N1CCC[C@H]1C(=O)N[C@@H](CCCCN)C(N)=O	7.28
CC[C@H](C)[C@H](NC(=O)[C@H](CCCN=C(N)N)NC(=O)[C@H](CCCN=C(N)N)NC[C@H](CC(C)C)NC(=O)[C@H](Cc1ccccc1)NC(=O)CNC(=O)CNC(=O)[C@@H](N)Cc1ccc(O)cc1)C(=O)N[C@@H](CCCN=C(N)N)C(=O)N1CCC[C@H]1C(=O)N[C@@H](CCCCN)C(N)=O (H-[X4]([Phe-Gly-Gly-Tyr])RIRPK-NH2)	7.49
